Patent US10406383B2, “Apparatus for treatment of dermatological conditions” (CAREWEAR CORP., priority 2004, dated 2019)
Marks after values point to notes of the source that are not given here.

How the values were obtained:
[1] = system: RARα expression in epidermal keratinocytes; assay: Seven-day patch test, RARα immunohistochemistry; assay type: in vivo, human; details: patch test under occlusion
Source text: (§1) The standard four-day patch test assay was extended to a seven-day period to examine the effect of the Topical 1 formulation under occlusion or delivered by ultrasound on the induction of fibrillin expression as a mechanism by which clinical signs of photoageing may be improved.
(§2) Ageing can also be monitored by examination of other molecules within the skin. Previous work has identified alterations in the expression of the enzyme matrix metalloproteinase 1 (MMP-1; essential for extracellular matrix remodelling)^3 and in the nuclear retinoid receptor retinoic acid receptor α (RARα; necessary for modulating the effects of vitamin A and its derivatives)^4. Two molecular chaperones were assessed to identify pathways for eliminating abnormal proteins; these were heat shock protein-72 (HSP72)^5 and the extracellular chaperone, clusterin^6.
(§3) Six healthy but photoaged female volunteers were recruited (age range 52-79 years). […]
(§4) A number of extracellular matrix (ECM) molecules known to be reduced in photoaged skin were assayed by immunohistochemistry to detail the potential effects of the Topical 1 formulation and its method of delivery. […] Also assessed were the number of epidermal keratinocytes expressing MMP-1 and RARα. […]
(§5) For cell-associated staining, the numbers of positive epidermal keratinocytes were assessed per high powered field, and the average score calculated for each site/test area. […]

[2] = Erythema and skin tolerability observations during the trial; assay type: in vivo, human; details: patch test protocol
Experimental: Six healthy but photoaged female volunteers were recruited (age range 52-79 years). Test substances were applied separately under standard 6 mm diameter Finn chambers to the extensor aspect of the forearm: these were Topical 1 formulation (20 μl/chamber), vehicle base (20 μl/chamber) and 0.025% all-trans RA (Retin-A® cream, Janssen-Cilag Ltd., 20 μl/chamber). In addition, a baseline untreated biopsy was taken as a reference point. Formulations were applied to clean skin on days 1 and 4 of the assay. All-trans RA was applied to an untreated site on day 4. On day 8, Finn chambers were removed and 3 mm punch biopsies were obtained under 1% lignocaine anaesthesia from each of the test site. Biopsies were embedded in OCT compound (Tissue-Tek®, Miles, Ind., USA) and snap frozen in liquid nitrogen. Biopsy sites were sutured with 1×4/o ethilon and subjects instructed to return between 7-10 days for suture removal.
Ten healthy but photoaged volunteers were recruited (men: 2; female: 8; age range 40-79 years). Topical 1 formulation was applied to extensor forearms alone and with the aid of an ultrasound device (Duo Son™ unit, Orthosonics, Devon UK). Low frequency (45 kHz, 100 mW/cm^2, continuous) and high frequency (1 MHz, 1 W/cm^2 pulsed average, pulsed 20% cycle) were applied simultaneously for a period of ten minutes, during which time the ultrasound delivery head was moved over the skin. […]

[3] = system: fibrillin-rich microfibrils proximal to the dermal-epidermal junction (DEJ); assay: Seven-day patch test, fibrillin-1 immunohistochemistry; assay type: in vivo, human; details: patch test under occlusion
Source text: as §1
Fibrillin is a major constituent of the elastin network in the papillary dermis and plays an important role in securing the epidermis to the underlying dermis. Topical application of all-trans retinoic acid (t-RA) as a positive control ameliorates the clinical signs of photoageing.
as §3, §4
Sections were randomised, blinded and examined on a Nikon OPTIPHOT microscope (Tokyo, Japan). For assessment of ECM components, the degree of immunostaining was assessed on a 5 point semi-quantitative scale where 0=no staining and 4=maximal staining. […] The degree of immunostaining was scored for three high power fields per section, and the average score calculated for each site/test area. […]

[4] = system: HSP72 expression in the epidermis; assay: Seven-day patch test, HSP72 immunohistochemistry; assay type: in vivo, human; details: patch test under occlusion
Source text: as §1, §2, §3, §4, §5

[5] = system: MMP-1 expression in epidermal keratinocytes; assay: Seven-day patch test, MMP-1 immunohistochemistry; assay type: in vivo, human; details: patch test under occlusion
Source text: as §1, §2, §3, §4, §5

[6] = system: HSP70 mRNA; details: rats, aspirin 100 mg/kg intraperitoneally 60 min before 37° C. for 30 min; cited from earlier work
[7] = positive epidermal keratinocytes per high powered field

CC1=C(/C=C/C(C)=C/C=C/C(C)=C/C(=O)O)C(C)(C)CCC1 [All-trans RA, all-trans retinoic acid]
effect on RARα expression in epidermal keratinocytes ([1]; result in words): significantly reduced RARα expression in epidermal keratinocytes
RARα staining Mean [1, 7]: 6.0463
Erythema at the site of application [2]: marked erythema
Fibrillin-1 staining Mean ([3]; photoaged forearm, biopsy day 8, 5 point scale 0=no staining, 4=maximal staining, p > 0.05): 1.8241
volunteers with fibrillin-1 deposition proximal to the DEJ ([3]; six volunteers): 3/6
effect on expression of epidermal HSP72 ([4]; result in words): significantly increased the expression of epidermal HSP72
HSP72 staining Mean [4, 7]: 77.03**
effect on MMP-1 expression in epidermal keratinocytes ([5]; result in words): reduced MMP-1 expression in epidermal keratinocytes, although this did not reach significance
MMP-1 staining Mean ([5]; positive epidermal keratinocytes per high powered field, p > 0.05): 5.3333

CC(=O)Oc1ccccc1C(=O)O [aspirin, acetylsalicyclic acid]
levels of HSP70 mRNA relative to heat treatment alone [6]: 3 to 4 fold
